# Assay results taken from publication PMC5529531, “Engineered isopeptide bond stabilized fibrin inspired nanoscale peptide based sealants for efficient blood clotting” (Scientific Reports, 2017).
# “And” between values parts separate entries of the source, which are not always exact repeats. Equal entries are not always repeated.
# Tested on: platelet-free plasma
# Test: Thrombin clotting time experiment with platelet-free plasma
# Settings: 0.35 mL chicken platelet-free plasma at 37 °C + 0.15 mL sealant solution (peptide 1.5 mM in 25 mM PBS pH 7.4, 5 mM CaCl2, 10 µL TG 7 U/mL) or thrombin-calcium reagent; mean ± SD of two independent experiments
# Protocol: Plasma was collected by centrifuging whole non-coagulated chicken blood (4500 rpm, 10 min, 4 °C). Thrombin clotting time (Figure S19) experiment was performed by incubating 0.35 mL platelet-free plasma, in a 1.5 mL microcentrifuge tube at 37 °C for 10 min, followed by the addition of the thrombin-calcium reagent, 0.15 mL, maintained at room temperature. The period of clot formation was noted. The same batch of platelet-free plasma was used to determine sealant clotting time. Platelet-free plasma 0.35 mL, was taken in a 1.5 mL microcentrifuge tube incubated at 37 °C followed by addition of 0.15 mL sealant solution. Sealant was prepared by dissolving each peptide in 25 mM PBS buffer, pH 7.4 with 5 mM CaCl2 where final conc. of the peptide was 1.5 mM followed by the addition of 10 µL TG (7 U/1 mL) soln. The period of clot formation was noted. The results are represented as mean ± SD of two independent experiments.
# Figure S19. Determination of clotting time of sealants with plasma by thrombin clotting time method. The clotting time in presence of thrombin, sealants 1, 2 and 3 are 32±2, 35±1, 25±1 and 28±2 secs, respectively.
substance,measurement,value
"thrombin: thrombin (bovine plasma), used as thrombin-calcium reagent",clotting time (thrombin clotting time experiment),32±2 secs and ~ 32 ± 2 secs
